Experimental data: patent US11046716B2, “Beta-lactamase inhibitors” (priority 2015, dated 2021)

How the values were obtained:
[1] = system: P. aeruginosa expressing the Class B carbapenemase VIM-2; assay: Broth microdilution MIC assay with meropenem, P. aeruginosa VIM-2; type: cell-based; details: Fixed Mero (meropenem) 4 μg/mL; P. aerug. 2775 VIM-2
In short: (§1)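 Test compound was titrated 2-fold from 16 to 0.125 μg/mL in cation-adjusted Mueller Hinton broth against a fixed 4 μg/ml β-lactam overlay. Plates were inoculated per CLSI broth microdilution, incubated 16-20 hours at 37° C, and the MIC of the test compound was read visually.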

[2] = system: K. pneumoniae expressing the class A carbapenemase KPC-2 and the class B carbapenemase VIM-4; assay: Broth microdilution MIC assay with meropenem, K. pneumoniae KPC-2 and VIM-4; type: cell-based; details: Fixed Mero (meropenem) 4 μg/mL; K. p. A-1797 KPC-2 VIM-4
In short: as §1

[3] = system: E. coli expressing the Class A Extended Spectrum Beta-Lactamase (ESBL) CTX-M-15; assay: Broth microdilution MIC assay with ceftazidime, E. coli CTX-M-15; type: cell-based; details: Fixed CAZ (ceftazidime) 4 μg/mL; E. coli ESBL4 CTX-M-15
In short: as §1

[4] = biological target: T1, SHV-5 (Klebsiella pneumoniae, UniProt P0A3M1); assay: β-lactamase enzyme inhibition assay, SHV-5 (cefotaxime substrate); type: biochemical
T1 construct: made in house; host or cells: E. coli BL21(DE3)
In short: (§2)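 Native untagged β-lactamases were expressed in E. coli BL21(DE3), then purified by cation exchange and gel filtration. Enzyme was preincubated with inhibitor for 15 min at 37 °C before substrate was added. Imipenem (A300) served KPC-2 and cefotaxime (A260) served SHV-5. IC50 was taken from initial hydrolysis rates relative to no-inhibitor controls.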

[5] = system: K. pneumoniae expressing the Class A carbapenemase KPC-2; assay: Broth microdilution MIC assay with meropenem, K. pneumoniae KPC-2; type: cell-based; details: Fixed Mero (meropenem) 4 μg/mL; K. p. 156319 KPC-3
In short: as §1

[6] = system: E. cloacae expressing the Class C P99; assay: Broth microdilution MIC assay with ceftazidime, E. cloacae P99; type: cell-based; details: Fixed CAZ (ceftazidime) 4 μg/mL; E. cl. 144200 p99 AmpC
In short: as §1

[7] = biological target: T2, VIM-2 (Escherichia coli, UniProt Q5U7L7); assay: β-lactamase enzyme inhibition assay, VIM-2 (nitrocefin substrate); type: biochemical; details: Class B; nitrocefin substrate, 486 nm; read-out: VIM-2
T2 construct: made in house; host or cells: E. coli BL21(DE3)
In short: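 Purified VIM-2 (Q sepharose anion exchange, Hepes pH 7.5, >90% pure) was preincubated with inhibitor at 37 °C for 15 min, then nitrocefin added at 100 μM final. Absorbance at 486 nm was followed for 10 min; IC50 was taken from maximum hydrolysis rates relative to inhibitor-free controls.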

[8] = system: K. pneumoniae producing the Class D carbapenemase OXA-48; assay: Broth microdilution MIC assay with meropenem, K. pneumoniae OXA-48; type: cell-based; details: Fixed Mero (meropenem) 4 μg/mL; K. p. 11978 OXA-48
In short: as §1

[9] = biological target: T3, KPC-2 (Klebsiella pneumoniae, UniProt Q9F663); assay: β-lactamase enzyme inhibition assay, KPC-2 (imipenem substrate); type: biochemical; details: Class A; imipenem substrate, 300 nm; read-out: KPC-2
T3 construct: made in house; host or cells: E. coli BL21(DE3)
In short: as §2

[10] = biological target: OXA-48 (UniProt Q6XEC0); assay: β-lactamase enzyme inhibition assay, Class D oxacillinase; type: biochemical; details: read-out: OXA-48
[11] = biological target: T4, AmpC (Enterobacter cloacae, UniProt P05364); assay: β-lactamase enzyme inhibition assay, p99 AmpC (nitrocefin substrate); type: biochemical
T4 construct: made in house; host or cells: E. coli BL21(DE3)
In short: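 Native untagged β-lactamases were expressed in E. coli BL21(DE3), then purified by cation exchange and gel filtration. Enzyme was preincubated with inhibitor for 15 min at 37 °C before substrate was added. IC50 was taken from initial hydrolysis rates relative to no-inhibitor controls.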

T3 sequence (Q9F663 25-293, looked up): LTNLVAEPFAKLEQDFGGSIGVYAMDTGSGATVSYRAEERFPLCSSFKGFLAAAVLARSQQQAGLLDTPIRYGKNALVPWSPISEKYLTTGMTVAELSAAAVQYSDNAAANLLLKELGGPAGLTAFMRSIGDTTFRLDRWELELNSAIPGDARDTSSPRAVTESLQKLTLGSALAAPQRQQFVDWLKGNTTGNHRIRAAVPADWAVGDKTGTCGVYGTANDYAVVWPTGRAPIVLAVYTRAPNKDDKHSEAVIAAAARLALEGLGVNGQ
T1 sequence (P0A3M1 22-286): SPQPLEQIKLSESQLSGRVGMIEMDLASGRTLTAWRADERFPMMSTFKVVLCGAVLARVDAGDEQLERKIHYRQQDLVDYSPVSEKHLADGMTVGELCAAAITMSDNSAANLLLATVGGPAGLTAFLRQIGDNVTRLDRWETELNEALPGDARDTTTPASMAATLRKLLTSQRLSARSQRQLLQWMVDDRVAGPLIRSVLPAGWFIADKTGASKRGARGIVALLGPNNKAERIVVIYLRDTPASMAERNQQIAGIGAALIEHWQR
T4 sequence (P05364 21-381): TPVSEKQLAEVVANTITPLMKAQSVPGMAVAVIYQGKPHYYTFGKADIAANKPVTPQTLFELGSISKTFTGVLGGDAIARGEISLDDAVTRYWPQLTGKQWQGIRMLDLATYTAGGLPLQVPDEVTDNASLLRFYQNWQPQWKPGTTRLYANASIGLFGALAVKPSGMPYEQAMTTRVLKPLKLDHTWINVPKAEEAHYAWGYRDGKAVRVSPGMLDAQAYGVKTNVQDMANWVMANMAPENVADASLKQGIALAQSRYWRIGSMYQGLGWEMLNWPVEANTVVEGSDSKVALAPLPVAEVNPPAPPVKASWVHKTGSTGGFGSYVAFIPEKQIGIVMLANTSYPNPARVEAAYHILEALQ

Structure (SMILES)	MIC (μg/mL) of Exemplary Compounds in presence of fixed β-lactams: P. aerug. 2775 VIM-2 [1]	MIC (μg/mL) of Exemplary Compounds in presence of fixed β-lactams: K. p. A-1797 KPC-2 VIM-4 [2]	MIC (μg/mL) of Exemplary Compounds in presence of fixed β-lactams: E. coli ESBL4 CTX-M-15 [3]	IC50 [4]	MIC (μg/mL) of Exemplary Compounds in presence of fixed β-lactams: K. p. 156319 KPC-3 [5]	MIC (μg/mL) of Exemplary Compounds in presence of fixed β-lactams: E. cl. 144200 p99 AmpC [6]	IC50 [7]	MIC (μg/mL) of Exemplary Compounds in presence of fixed β-lactams: K. p. 11978 OXA-48 [8]	IC50 [9]	IC50 [10]	IC50 [11]
O=C(Cn1nnnc1CC(=O)N[C@H]1Cc2cccc(C(=O)O)c2OB1O)N[C@H]1CCNC1 [Example 43, (R)-2-hydroxy-3-(2-(1-(2-oxo-2-(((S)-pyrrolidin-3-yl)amino)ethyl)-1H-tetrazol-5-yl)acetamido)-3,4-dihydro-2H-benzo[e][1,2]oxaborinine-8-carboxylic acid]	C (C represents an MIC of <1 μg/mL)	B (B represents an MIC between 1 and 16 μg/mL inclusive)	C (C represents an MIC of <1 μg/mL)	< 100 nM	C (C represents an MIC of <1 μg/mL)	C (C represents an MIC of <1 μg/mL)	< 100 nM	B (B represents an MIC between 1 and 16 μg/mL inclusive)	< 100 nM	100 to 1000 nM	< 100 nM
O=C(Cn1nnc(CC(=O)N[C@H]2Cc3cccc(C(=O)O)c3OB2O)n1)N[C@H]1CCNC1 [Example 44]	C (C represents an MIC of <1 μg/mL)	B (B represents an MIC between 1 and 16 μg/mL inclusive)	C (C represents an MIC of <1 μg/mL)	< 100 nM	B (B represents an MIC between 1 and 16 μg/mL inclusive)	C (C represents an MIC of <1 μg/mL)	< 100 nM	B (B represents an MIC between 1 and 16 μg/mL inclusive)	< 100 nM	100 to 1000 nM	< 100 nM
N=C(N)NCCn1nnnc1CC(=O)N[C@H]1Cc2cccc(C(=O)O)c2OB1O [Example 47, (R)-3-(2-(1-(2-guanidinoethyl)-1H-tetrazol-5-yl)acetamido)-2-hydroxy-3,4-dihydro-2H-benzo[e][1,2]oxaborinine-8-carboxylic acid]	C (C represents an MIC of <1 μg/mL)	B (B represents an MIC between 1 and 16 μg/mL inclusive)	C (C represents an MIC of <1 μg/mL)	< 100 nM	C (C represents an MIC of <1 μg/mL)	C (C represents an MIC of <1 μg/mL)	< 100 nM	C (C represents an MIC of <1 μg/mL)	< 100 nM	1000 to 10000 nM	< 100 nM
N=C(N)NCCn1nnc(CC(=O)N[C@H]2Cc3cccc(C(=O)O)c3OB2O)n1 [Example 48, (R)-3-(2-(2-(2-guanidinoethyl)-2H-tetrazol-5-yl)acetamido)-2-hydroxy-3,4-dihydro-2H-benzo[e][1,2]oxaborinine-8-carboxylic acid]	C (C represents an MIC of <1 μg/mL)	B (B represents an MIC between 1 and 16 μg/mL inclusive)	C (C represents an MIC of <1 μg/mL)	< 100 nM	B (B represents an MIC between 1 and 16 μg/mL inclusive)	C (C represents an MIC of <1 μg/mL)	< 100 nM	B (B represents an MIC between 1 and 16 μg/mL inclusive)	< 100 nM	1000 to 10000 nM	< 100 nM
